The experiment deals with Genome polyprotein (dengue virus type 2, UniProt P29990). Format: functional, Thailand/16681/1984.

Molecules are shown by their SMILES. pIC50: −log10 of the molar value. Where “and” joins values, the source holds several entries; their conditions need not be identical. Equal entries are not always repeated.

This passage reports IC50 results from ChEMBL document CHEMBL5604063, “ASAP - DENV-2 NS2B-NS3 protease fluorescence dose response” (2024).

Chain of Genome polyprotein (P29990 1346-1475 limits assumed): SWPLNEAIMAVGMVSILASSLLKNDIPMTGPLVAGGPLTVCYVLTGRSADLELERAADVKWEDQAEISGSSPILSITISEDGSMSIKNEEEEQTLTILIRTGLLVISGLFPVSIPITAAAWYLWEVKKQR
Chain of Genome polyprotein (P29990 1476-2093 limits assumed): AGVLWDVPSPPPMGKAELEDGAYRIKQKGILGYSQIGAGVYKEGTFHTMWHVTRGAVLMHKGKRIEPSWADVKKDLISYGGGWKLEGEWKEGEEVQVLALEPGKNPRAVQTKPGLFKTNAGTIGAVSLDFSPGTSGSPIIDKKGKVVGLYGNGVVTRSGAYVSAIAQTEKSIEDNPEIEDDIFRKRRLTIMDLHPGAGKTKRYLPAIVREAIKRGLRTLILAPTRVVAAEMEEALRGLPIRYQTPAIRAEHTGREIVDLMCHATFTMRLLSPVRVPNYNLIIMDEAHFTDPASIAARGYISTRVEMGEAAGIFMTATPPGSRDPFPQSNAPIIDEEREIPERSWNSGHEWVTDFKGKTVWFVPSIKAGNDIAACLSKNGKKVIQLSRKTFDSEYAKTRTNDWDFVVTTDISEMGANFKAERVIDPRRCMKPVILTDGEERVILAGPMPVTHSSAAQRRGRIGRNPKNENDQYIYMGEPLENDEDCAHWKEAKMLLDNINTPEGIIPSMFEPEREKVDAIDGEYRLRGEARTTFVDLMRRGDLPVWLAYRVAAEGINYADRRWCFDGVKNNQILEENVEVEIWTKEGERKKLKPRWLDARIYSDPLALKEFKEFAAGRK

What is called pIC50 is the negative decadic logarithm of the IC50, by convention in mol/L. As for `O=C(Nc1cccnc1)C1CCN(Cc2c[nH]c3ccccc23)CC1`, the pIC50 is less than 4.00.
Compound `O=C(c1cccnc1)N1CCN(Cc2c[nH]c3ccccc23)CC1` showed a pIC50 of less than 4.00.
`NCc1ccc(Oc2ccc(S(=O)(=O)Nc3ccc(Cl)cc3C(=O)O)cc2)cc1` showed a pIC50 of less than 4.00.
With `COC(=O)c1cc2scc(Br)c2[nH]1`, the pIC50 was less than 4.00.
Under `O=C(Nc1cc(Cl)cc(C(=O)Nc2n[nH]c3c2CNC3)c1)OCc1ccccc1` stands 4.57; under `O=C(O)c1cc(Cl)ccc1NS(=O)(=O)c1ccc(-c2ccncc2)cc1`, less than 4.00.
For `Cc1ccc(-c2nc(NC(=O)[C@H](NC(=O)OCc3ccccc3)c3ccc(OCc4ccccc4)cc3)sc2CN(C)C)cc1` the value was less than 4.00.
Under `CCn1cc(-c2cccc(CN(C)C)c2)nc(N2CC[C@@H](CO)C2)c1=O` stands less than 4.00; under `CCOc1ccc([C@@H](NC(=O)OCc2ccccc2)C(=O)Nc2cccc(CN)c2)cc1`, less than 4.00.
`COc1cc(Cl)cc(C(=O)O)c1NS(=O)(=O)c1ccc(Oc2ccccc2Cl)cc1`: the pIC50 is 4.65.
Under `O=C1O[C@H]2CCN(Cc3ccc(OCc4ccccc4)cc3)C[C@H]12` stands less than 4.00; under `c1nc(C2CCN(Cc3n[nH]c4c3COCC4)CC2)cs1`, less than 4.00; under `O=C(O)c1cc(Cl)ccc1NS(=O)(=O)c1ccc(Nc2ccccc2F)nc1`, 4.36.
Under `CCn1c(=O)c(N2CC[C@]3(CNC(=O)O3)C2)nc2ccccc21` stands less than 4.00; under `COc1ccc(F)cc1-c1ccc(S(=O)(=O)Nc2ccc(Cl)cc2C(N)=O)cc1`, 4.55.
For `C=C1C[C@H](c2cccc(CN)c2)[C@@H](c2cc(Cl)cc(NC(=O)OCc3ccccc3)c2)C1` the value was less than 4.00.
As to `CCOc1cccc(-c2ccc(S(=O)(=O)Nc3ccc(Cl)cc3C(=O)O)cc2)c1`, the pIC50 was 5.37 and 5.21.
In turn, `CN1CCN(Cc2cccc(CNC(=O)[C@@H](NC(=O)OCc3ccccc3)c3ccc(OCc4ccccc4)cc3)c2)CC1` had a pIC50 of less than 4.00.
The compound `Cc1cc(NS(=O)(=O)c2ccc(Cl)cc2C(=O)O)nn1Cc1ccccc1` showed a pIC50 of less than 4.00.
On to `O=C(O)c1cc(Cl)ccc1S(=O)(=O)N[C@H]1CC[C@H]2CN(Cc3ccccc3)C[C@H]2C1`, for which the pIC50 was less than 4.00.
`CC(C)Oc1cncc(N2CC[C@@H](CO)C2)c1` had a pIC50 of less than 4.00.
As to `O=C(O)c1c(NS(=O)(=O)c2ccc(Oc3ccccc3Cl)cc2)ccc(Cl)c1F`, the pIC50 was 4.74.
Under `O=C(O)c1cc(Cl)ccc1S(=O)(=O)NC1CCN(S(=O)(=O)c2ccc(I)cc2)CC1` stands 4.09.
Under `CCn1c(=O)c(N2CCCC[C@H](N3CCCC3)C2)nc2ccccc21` stands less than 4.00.
Under `NCc1cccc(NC(=O)[C@@H](NS(=O)(=O)c2ccccc2F)c2ccc(OCc3ccccc3)cc2)c1` stands less than 4.00; under `CN(C)Cc1ccc(CNC(=O)[C@@H](NC(=O)OCc2ccccc2)c2ccc(OCc3ccccc3)cc2)cc1`, less than 4.00.
Consider `COc1ccccc1-c1ccc(S(=O)(=O)Nc2ccc(Cl)cc2C(=O)O)cc1`, for which the pIC50 was 4.89.
For `CC[C@H]1CCN(c2nccn(CC)c2=O)C1` the value was less than 4.00.
For `Fc1cccc(F)c1-c1n[nH]cc1CN1CCC(c2nc3ccccc3s2)CC1` the value was less than 4.00.
For `O=C(Nc1ccc2c(c1)CNC2)c1cc(F)cc2[nH]nnc12` the value was less than 4.00.
In turn, `Cn1cc(N2CCN(Cc3c[nH]c4ccccc34)CC2)cn1` gave a pIC50 of less than 4.00.
For the compound `O=c1oc2cccnc2n1CC=Cc1ccccc1`, the pIC50 is less than 4.00.
In turn, `CCN(CC(=O)NC)C(=O)c1cc(Cl)ccc1NS(=O)(=O)c1ccc(Oc2ccccc2Cl)cc1` gave a pIC50 of 4.16.
For `O=C1CN(Cc2c[nH]c3ccccc23)CCN1c1cccnc1` the value was less than 4.00; for `CCn1c(=O)c(N2C[C@H]3C[C@H]2C(F)(F)C3)nc2ccccc21`, less than 4.00.
Under `N[C@H]1CC[C@H](NC(=O)[C@@H](NC(=O)OCc2ccccc2)c2ccc(OCc3ccccc3)cc2)CC1` stands less than 4.00.
As to `CC(C)(CO)NC(=O)c1cc(Cl)cc(NC(=O)c2ccc(O)nc2)c1`, the pIC50 is less than 4.00.
Under `O=Cc1ccc(N2CCC(C(=O)NC[C@@H]3CCCN4CCCC[C@H]34)CC2)cc1` stands less than 4.00; under `Nc1nc(S(=O)(=O)c2ccccc2)c(Cl)s1`, less than 4.00; under `CCN1C[C@H]2C[C@@H]1CN2c1nc2ccccc2n(CC)c1=O`, less than 4.00.
For `O=C(O)c1cc(Cl)ccc1S(=O)(=O)NC1CCN(S(=O)(=O)Cc2ccccc2)CC1` the value was less than 4.00.
Under `NC(=O)c1cccnc1N1CCCN(c2nc(-c3cc(Cl)cc(Cl)c3)no2)CC1` stands less than 4.00; under `N#Cc1ccccc1-c1ccc(S(=O)(=O)Nc2ccc(Cl)cc2C(=O)O)cc1`, 4.60; under `CC(C)CNC(=O)c1cc(Cl)ccc1NS(=O)(=O)c1ccc(Oc2ccccc2Cl)cc1`, 4.89.
Take `O=c1c(N2CC[C@H](CO)C2)nccn1C1CC1`: the pIC50 is less than 4.00.
`O=C(O)c1cc(Cl)ccc1S(=O)(=O)NC1CCC(N2CCCCC2=O)CC1` (stereo unspecified) had a pIC50 of less than 4.00.
Under `CC(C)c1nn(C)cc1-c1cc(F)cc(C(=O)Nc2ccc3c(c2)CNC3)c1` stands less than 4.00; under `O=C(O)[C@@H]1CCCC[C@H]1NS(=O)(=O)c1ccc(Oc2ccccc2Cl)cc1`, less than 4.00; under `Cc1cc(C)n(-c2ccc(NS(=O)(=O)c3ccc(Cl)cc3C(=O)O)cc2)n1`, less than 4.00.
Compound `O=C(Nc1cc(Cl)cc(C(=O)Nc2n[nH]c3c2CNC32CC2)c1)OCc1ccccc1` had a negative-log IC50 (pIC50) of 4.17.
Under `O=C(O)c1cc(Cl)ccc1S(=O)(=O)NC1CCN(C(=O)c2ccccc2C(F)(F)F)CC1` stands less than 4.00; under `Cn1cnc2c1CN(Cc1ccc3c(c1)CCNCC3)CC2`, less than 4.00; under `CCn1cc(-c2ccc3nn(C)cc3c2)nc(N2CC[C@@H](CO)C2)c1=O`, less than 4.00.
For `CCCC[C@H](NC(=O)OC(C)(C)C)C(=O)N[C@H](C(=O)NCc1ccc(C(N)=O)cc1)c1ccc(OCc2ccccc2)cc1` the value was less than 4.00.
For `Cc1c(C(=O)Nc2cc(CCCN)ccn2)cc(-c2ccccc2)n1C` the value was less than 4.00.
In turn, `Cc1nn(C)cc1-c1ccc(S(=O)(=O)Nc2ccc(Cl)cc2C(=O)O)cc1` gave a pIC50 of 4.07.
Under `CCN1CCN(c2ccc(NS(=O)(=O)c3ccc(Cl)cc3C(=O)O)cc2)CC1` stands less than 4.00; under `c1ccc2sc(C3CCN(Cc4n[nH]c5c4CCCC5)CC3)nc2c1`, less than 4.00.
For `NC(=O)c1cn(C[C@H]2CCCN2c2ccnc3ccccc23)nn1` the value was less than 4.00; for `COC(=O)CNC(=O)[C@H](Nc1ccc2c(c1)CNC2)c1cc(Cl)cc(C2CC2)c1`, less than 4.00; for `O=C(Nc1cc(Cl)cc(C(=O)Nc2ccc3c(c2)C[C@H](F)C3)c1)OCc1ccccc1`, less than 4.00.
Under `Cc1ccccc1-c1nc2c(C(=O)Nc3ccc4c(c3)CNC4)cc(F)cc2[nH]1` stands 5.46 and 5.47; under `CC1(C)CCC([C@@H](NC(=O)OCc2ccccc2)C(=O)Nc2cccc(CN)c2)CC1`, less than 4.00.
In turn, `CCn1cc(C#N)nc(N2CC[C@@H](CO)C2)c1=O` had a pIC50 of less than 4.00.
In turn, `Cc1ccc(COc2ccc(S(=O)(=O)Nc3ccc(Cl)cc3C(=O)O)cc2)cc1` had a pIC50 of 5.02.
For `N#Cc1ccc2[nH]cc(CN3CCC(c4cscn4)CC3)c2c1` the value was less than 4.00.
